{"source": "ChEMBL document CHEMBL5325445", "about": "“Discovery and development of small-molecule heparanase inhibitors” (Bioorg Med Chem, 2023)", "note": "pIC50: −log10 of the molar value.", "data": [{"system": "not listed separately", "test": "Anti-angiogenic activity in human endothelial cells assessed as reduction in cell growth", "settings": "not given", "values": [{"smiles": "COc1ccc(N2C(=O)c3ccc(C(=O)O)cc3C2=O)cc1-c1nc2cc(-c3cc(F)cc(F)c3)ccc2o1", "pIC50": "> 5.00"}, {"smiles": "CCCNc1ccc(N2C(=O)c3ccc(C(=O)O)cc3C2=O)cc1-c1nc2cc(-c3ccc(Cl)cc3)ccc2o1", "pIC50": 6.70}, {"smiles": "COc1ccc(-c2nc3cc(-c4ccc(F)cc4)ccc3o2)cc1N1C(=O)c2ccc(C(=O)O)cc2C1=O", "pIC50": "> 5.00"}, {"smiles": "COc1ccc(N2C(=O)c3ccc(C(=O)O)cc3C2=O)cc1-c1nc2cc(-c3ccc4c(c3)OCO4)ccc2o1", "pIC50": 6.12}, {"smiles": "COCCOc1ccc(-c2nc3cc(-c4ccccc4)ccc3o2)cc1N1C(=O)c2ccc(C(=O)O)cc2C1=O", "pIC50": 5.30}, {"smiles": "CCCNc1ccc(N2C(=O)c3ccc(C(=O)O)cc3C2=O)cc1-c1nc2cc(-c3ccc(OC(F)(F)F)cc3)ccc2o1", "pIC50": 6.70}, {"smiles": "CCCNc1ccc(N2C(=O)c3ccc(C(=O)O)cc3C2=O)cc1-c1nc2cc(-c3ccc(C(F)(F)F)cc3)ccc2o1", "pIC50": 6.70}, {"smiles": "CCCNc1ccc(N2C(=O)c3ccc(C(=O)O)cc3C2=O)cc1-c1nc2cc(-c3ccc(F)cc3)ccc2o1", "pIC50": 6.70}, {"smiles": "CCCNc1ccc(N2C(=O)c3ccc(C(=O)O)cc3C2=O)cc1-c1nc2cc(-c3cccc(Cl)c3)ccc2o1", "pIC50": 6.70}, {"smiles": "CCCNc1ccc(N2C(=O)c3ccc(C(=O)O)cc3C2=O)cc1-c1nc2cc(-c3ccc(F)c(Cl)c3)ccc2o1", "pIC50": 6.70}, {"smiles": "COc1ccc(-c2nc3cc(-c4cccc(-c5ccccc5)c4)ccc3o2)cc1N1C(=O)c2ccc(C(=O)O)cc2C1=O", "pIC50": 6.00}, {"smiles": "O=C(O)c1ccc2c(c1)C(=O)N(c1cccc(-c3nc4cc(-c5cccc(-c6ccccc6)c5)ccc4o3)c1)C2=O", "pIC50": 6.00}]}, {"system": "HepG2", "test": "Antiproliferative activity against human HepG2 cells assessed as reduction in cell viability measured after 24 hrs by MTT assay", "assay_type": "functional, cell-based", "settings": "HepG2, 24 h", "values": [{"smiles": "Oc1c(I)cc(I)cc1-c1nn2c(-c3ccccc3)nnc2s1", "pIC50": 4.92}, {"smiles": "Oc1ccc(I)cc1-c1nn2c(-c3ccccc3)nnc2s1", "pIC50": 4.74}, {"smiles": "O=C(Nn1c(-c2ccccc2)n[nH]c1=S)c1cc(I)cc(I)c1O", "pIC50": 4.83}]}, {"system": "U2OS", "test": "Anti-invasive activity against human U2OS cells assessed as cell invasion at 2.5 uM", "assay_type": "functional", "settings": "not given", "units": {"inhibition at 2.5 µM": "%"}, "values": [{"smiles": "O=C(Nc1ccc(-c2nc3ccccc3[nH]2)cc1)c1ccc(C(=O)Nc2ccc(-c3nc4ccccc4[nH]3)cc2)cc1", "inhibition at 2.5 µM": 80}, {"smiles": "O=C(O)c1ccc2c(c1)C(=O)N(c1ccc(NC(=O)c3cccc(C(=O)Nc4ccc(N5C(=O)c6ccc(C(=O)O)cc6C5=O)cc4Cl)c3)c(Cl)c1)C2=O", "inhibition at 2.5 µM": 75}]}, {"system": "not listed separately", "test": "Antiproliferative activity against mouse Lewis lung carcinoma cells assessed as reduction in cell viability measured after 24 hrs by MTT assay", "assay_type": "functional, cell-based", "settings": "not given", "values": [{"smiles": "Oc1c(I)cc(I)cc1-c1nn2c(-c3ccccc3)nnc2s1", "pIC50": 5.08}, {"smiles": "Oc1ccc(I)cc1-c1nn2c(-c3ccccc3)nnc2s1", "pIC50": 4.78}, {"smiles": "O=C(Nn1c(-c2ccccc2)n[nH]c1=S)c1cc(I)cc(I)c1O", "pIC50": 4.93}]}, {"system": "HT-1080", "test": "Inhibition of cell invasion in human HT-1080 cells", "settings": "not given", "values": [{"smiles": "CCCCCCCCCCCCCCCC(=O)C1=C(OCc2ccccc2)[C@@H](CO)OC1=O", "pIC50": 5.82}]}, {"target": "T1, Heparanase (Homo sapiens, UniProt Q9Y251)", "T1 sequence (Q9Y251 whole entry)": "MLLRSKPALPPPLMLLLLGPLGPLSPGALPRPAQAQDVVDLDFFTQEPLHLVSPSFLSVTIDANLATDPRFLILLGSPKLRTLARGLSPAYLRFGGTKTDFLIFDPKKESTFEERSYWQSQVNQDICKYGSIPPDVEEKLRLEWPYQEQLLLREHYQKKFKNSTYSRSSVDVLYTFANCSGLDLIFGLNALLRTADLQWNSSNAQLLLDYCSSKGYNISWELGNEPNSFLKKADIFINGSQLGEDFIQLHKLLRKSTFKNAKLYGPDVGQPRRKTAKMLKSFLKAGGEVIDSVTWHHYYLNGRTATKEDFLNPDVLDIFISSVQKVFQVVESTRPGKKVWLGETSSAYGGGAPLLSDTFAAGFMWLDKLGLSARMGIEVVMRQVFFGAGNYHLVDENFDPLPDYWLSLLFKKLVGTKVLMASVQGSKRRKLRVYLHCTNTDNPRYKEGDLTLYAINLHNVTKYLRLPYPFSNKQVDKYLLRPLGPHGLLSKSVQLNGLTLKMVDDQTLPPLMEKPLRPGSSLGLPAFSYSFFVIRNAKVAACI", "test": "Inhibition of heparanase (unknown origin)", "settings": "not given", "values": [{"smiles": "COc1cccc(-n2nc(C(=O)O)cc2-c2ccc(C3CCCCC3)c(Cl)c2)c1", "pIC50": 5.00}]}]}
